Measurements as given in patent US20200123147A1, “THIAZOLE COMPOUNDS USEFUL AS PRMT5 INHIBITORS” (Bayer Aktiengesellschaft, priority 2017, published 2020).

Assays:
[1] = molecular target: T1, PRMT5:MEP50 protein complex (Homo sapiens, UniProt O14744); assay: In vitro assay 1: PRMT5 SPA assay ("EAA"); format: biochemical; details: scintillation proximity assay, methylation of biotinylated H4(1-24) peptide, 3H-SAM, 60 min at 22° C.
T1 construct: FLAG (N); made in house; host or cells: Hi5 insect cells
Excerpt: In Vitro Assay 1: PRMT5 SPA Assay (“EAA”)
PRMT5 inhibitory activities of the compounds described in the present invention were quantified using a scintillation proximity assay (SPA) which measures methylation by the enzyme of a synthetic, biotinylated peptide corresponding to the N-terminal sequence of Histone H4 (a.a. 1-24). The peptide of sequence […]-K(Btn)-amide is commercially available (e.g. from Biosyntan) and will be herein referred to as H4(1-24). The PRMT5:MEP50 protein complex used in the assay was produced in house following standard protocols. Briefly, full length PRMT5 and MEP50 constructs respectively tagged with N-terminal FLAG and 6× His sequences were co-expressed in Hi5 insect cells, and the recombinant protein complex was purified by FLAG affinity and size exclusion chromatography.
In a typical assay 11 different concentrations of each compound (0.1 nM, 0.33 nM, 1.1 nM, 3.8 nM, 13 nM, 44 nM, 0.15 μM, 0.51 μM, 1.7 μM, 5.9 μM and 20 μM) were tested in duplicate within the same microtiter plate. To this end, 100-fold concentrated compound solutions (in DMSO) were previously prepared by serial dilution (1:3.4) of 2 mM stocks in a clear low volume 384-well source microtiter plate (Greiner Bio-One), from which 50 nl of compounds were transferred into a white low volume test microtiter plate from the same supplier. Subsequently, 2.5 μL PRMT5 in aqueous assay buffer [20 mM Bicine pH 8.0 (Alfa Aesar), 7.5 mM Tris(2-carboxyethyl) phosphine hydrochloride (TCEP, Sigma), 0.1% (w/v) bovine gamma globuline (BGG, Sigma), 0.002% (v/v) Tween-20 (Sigma)] were added to the compounds in the test plate to a final enzyme concentration of—typically—7.5 nM (this parameter was adjusted depending on the activity of the enzyme lot in order to be within the linear dynamic range of the assay). The samples were then incubated for 15 min at 22° C. to allow pre-equilibration of the putative enzyme-inhibitor complexes before the start of the methylation reaction, which was initiated by the addition of 2.5 μL 2-fold concentrated solution (in assay buffer) of “cold” S-Adenosyl-L-Methionine (SAM, Sigma, final concentration: 0.5 μM), tritiated 3H-SAM (Perkin Elmer, final concentration: 0.5 μM) and H4(1-24) peptide substrate (final concentration: 0.06 μM). The resulting mixture (5 μL final volume) was shortly centrifuged (2 min., 1500 rpm) and incubated at 22° C. during 60 min. Thereupon the reaction was stopped by adding 3 μL of Streptavidin PS SPA imaging beads (Perkin Elmer, final concentration of 0.375 μg/μL) and “cold” SAM (AK Scientific, 250 μM final concentration) for non-specific binding reduction. Plates containing the stopped reaction were sealed with transparent adhesive foil (Perkin Elmer), centrifuged (2 min., 1500 rpm), and further incubated either 1 h at 22° C. or overnight at 4° C. in order to allow the SPA signals to develop. Subsequently, the amount of product was evaluated by measuring the energy transfer from the β-particles emitted by the 3H-labeled substrate to the Europium scintillator co-polymerized in the polystyrene matrix of the PS imaging beads, using the standard settings for this purpose of a Viewlux (Perkin-Elmer) CCD plate imaging device (emission filter 613/55 (IFP).
The resulting scintillation counts were taken as indicator for the amount of methylated peptide per well. The data were normalised using two sets of control wells (typically 16 each) for high—(=enzyme reaction with DMSO instead of test compound=0%=minimum inhibition) and low—(=all assay components without enzyme=100%=maximum inhibition) PRMT5 activity. IC50 values were calculated by fitting the normalized inhibition data to a 4-parameter logistic equation using the “Screener” analysis software from Genedata.

[2] = test system: PRMT5 (histone H4 Arg3 SDMA levels in MDA-MB-468 cells); assay: In vitro assay 2: quantification of SDMA (symmetric dimethylarginine) expression levels (H4 Arg3) in cancer cells, High-Content Analysis; format: cell-based; details: Homo sapiens, 72 h, SDMA histone H4 (Arg3) average signal intensity per cell
Excerpt: In Vitro Assay 2: Quantification of SDMA (Symmetric Dimethylarginine) Expression Levels (H4 Arg3) After Small Molecule Treatment of Cancer Cells
The SDMA-assay based on High-Content Analysis (HCA) enables the biological characterization of compounds inhibiting PRMT5. By this assay, substances are benchmarked on their cellular activity to modulate histone H4 Arg3 levels over broad inhibitor concentration ranges.
Cultivated cells of the human mammary gland tumor cell line MDA-MB-468 (ATCC HTB-132) were plated at a density of 2500 cells per well in a 384-well microtiter plate in 20 μL of Roswell Park Memorial Institute (RPMI) 1640 medium supplemented with 1% (v/v) glutamine, 1% (v/v) penicillin, 1% (v/v) streptomycin and 10% (v/v) fetal calf serum. After pre-incubation at 37° C. overnight, test compo unds solubilized in DMSO were added at various concentrations (0 μM, as well as in the range of 0.005 μM-30 μM; the final concentration of the solvent DMSO was 0.5% (v/v)). Cells were incubated at 37° C. for 72 h in the presence of test compounds. Thereafter, cells were fixed with 4% (v/v) paraformaldehyde in phosphate buffered saline (PBS) at room temperature for 1 h, permeabilized using 0.5% (v/v) Triton X™ 100 in PBS for 15 min and blocked with 1% (v/v) bovine serum albumin (BSA) in PBS for 30 min. In the following, cells were incubated with anti-dimethyl-histone H4 (Arg3) symmetric antibody (Millipore #07-947) at RT for 2 h. After a single washing step with blocking solution, cells were incubated with species-specific fluorescent conjugated secondary antibody Alexa Fluor™ 488 (Jackson Immuno Research #111-546-003) at RT for 2 h.
Image acquisition for cells was carried out using the confocal imaging system OPERA® (PerkinElmer). Images were captured using two channels: Hoechst 33342 stain (DNA) and Alexa Fluor™ 488 (SDMA staining); and were analyzed using the MetaXpress® software (Molecular Devices). Exposure times were chosen for individual experiments to prevent saturation and allow for quantification in the linear range. A minimum of 500 cells in 5 field views were analyzed per well using 10× water immersion objective with a two-fold binning.
The image analysis routine was developed in MetaXpress®. The standardized image-analysis module “Count Nuclei” and the images of the DNA-channel were used for nuclei segmentation. The segmented nuclei were filtered for size, shape and signal intensity to exclude possible apoptotic and non-viable cells along with metaphase nuclei. These phenotypes result in overestimated antibody signals, due to their strong chromatin compaction. For further processing, binary object masks were calculated from the segmented and positively selected nuclei. The binary masks served as templates to be superimposed over the images of the SDMA channel. The SDMA average signal intensity per cell was quantified for every image set. The assay raw data were further analyzed by four parameter logistic regression analysis using Genedata's Assay Analyzer® and Condoseo® software to determine the IC50 value for each tested compound.

T1 sequence (O14744 whole entry, species assumed): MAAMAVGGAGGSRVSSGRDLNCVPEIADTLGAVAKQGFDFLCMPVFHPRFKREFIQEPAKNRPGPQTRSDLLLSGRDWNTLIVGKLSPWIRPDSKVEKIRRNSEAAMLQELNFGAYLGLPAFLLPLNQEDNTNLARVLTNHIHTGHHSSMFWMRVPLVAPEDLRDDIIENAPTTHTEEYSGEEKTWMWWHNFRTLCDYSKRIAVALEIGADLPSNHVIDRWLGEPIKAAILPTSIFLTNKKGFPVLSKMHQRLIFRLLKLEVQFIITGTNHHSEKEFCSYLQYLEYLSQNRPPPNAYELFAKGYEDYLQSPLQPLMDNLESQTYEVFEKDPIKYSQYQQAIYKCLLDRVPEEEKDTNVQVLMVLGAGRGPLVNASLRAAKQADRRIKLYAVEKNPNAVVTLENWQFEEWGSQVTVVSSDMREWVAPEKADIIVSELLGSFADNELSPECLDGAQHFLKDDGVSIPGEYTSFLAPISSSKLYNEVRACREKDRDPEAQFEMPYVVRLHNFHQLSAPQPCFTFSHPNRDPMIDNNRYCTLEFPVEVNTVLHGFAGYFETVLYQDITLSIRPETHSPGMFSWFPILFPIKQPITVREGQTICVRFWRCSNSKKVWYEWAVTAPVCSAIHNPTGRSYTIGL
T1 sequence (Q9BQA1 whole entry partner, species assumed): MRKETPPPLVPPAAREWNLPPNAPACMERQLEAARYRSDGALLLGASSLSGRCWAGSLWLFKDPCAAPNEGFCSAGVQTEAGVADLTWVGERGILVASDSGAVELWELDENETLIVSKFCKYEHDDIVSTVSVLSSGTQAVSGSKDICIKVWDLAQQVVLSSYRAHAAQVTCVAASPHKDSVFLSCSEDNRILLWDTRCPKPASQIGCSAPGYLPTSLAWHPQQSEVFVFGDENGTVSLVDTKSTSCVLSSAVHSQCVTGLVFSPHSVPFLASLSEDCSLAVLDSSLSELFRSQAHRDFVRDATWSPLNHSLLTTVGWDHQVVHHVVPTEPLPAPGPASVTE

Row | SMILES | IC50 [1] [nM] | IC50 [2] [nM]
1 | Cn1nc(NC(=O)c2csc(Nc3ccccc3)n2)cc1C(F)(F)F [Example 10, N-[1-Methyl-5-(trifluoromethyl)-1H-pyrazol-3-yl]-2-(phenylamino)-1,3-thiazole-4-carboxamide] | 238 | 27900
2 | CC(C)(C)c1cc(NC(=O)c2csc(Nc3ccc(Cl)cc3)n2)n[nH]1 [Example 12, N-(5-tert-Butyl-1H-pyrazol-3-yl)-2-[(4-chlorophenyl)amino]-1,3-thiazole-4-carboxamide] | 295 | 22100
3 | O=C(NCCCCN1CCc2ccccc2C1)c1csc(Nc2ccc(Cl)cc2)n1 [Example 17, 2-[(4-Chlorophenyl)amino]-N-[4-(3,4-dihydroisoquinolin-2(1H)-yl)butyl]-1,3-thiazole-4-carboxamide] | 585 | 10000
4 | Cc1ccc(Nc2nc(C(=O)Nc3cc(C(C)(C)C)on3)cs2)cc1Cl [Example 18, N-(5-tert-Butyl-1,2-oxazol-3-yl)-2-[(3-chloro-4-methylphenyl)amino]-1,3-thiazole-4-carboxamide] | 819 | ≥ 30000
5 | CCn1ccc(NC(=O)c2csc(Nc3ccc(Cl)cc3)n2)n1 [Example 15, 2-[(4-Chlorophenyl)amino]-N-(1-ethyl-1H-pyrazol-3-yl)-1,3-thiazole-4-carboxamide] | 400 | ≥ 30000
6 | Cn1ccc(NC(=O)c2csc(Nc3ccccc3)n2)n1 [Example 23, N-(1-Methyl-1H-pyrazol-3-yl)-2-(phenylamino)-1,3-thiazole-4-carboxamide] | 1610 | 23200
7 | CC(C)(C)c1cc(NC(=O)c2csc(Nc3ccccn3)n2)no1 [Example 2, N-(5-tert-Butyl-1,2-oxazol-3-yl)-2-(pyridin-2-ylamino)-1,3-thiazole-4-carboxamide] | 78 | 2450
8 | CC(C)(C)c1cc(NC(=O)c2csc(Nc3ccc(Cl)cc3)n2)no1 [Example 4, N-(5-tert-Butyl-1,2-oxazol-3-yl)-2-[(4-chlorophenyl)amino]-1,3-thiazole-4-carboxamide] | 104 | 20800
9 | CC(C)(C)c1cc(NC(=O)c2csc(Nc3ccccc3)n2)no1 [Example 3, N-(5-tert-Butyl-1,2-oxazol-3-yl)-2-(phenylamino)-1,3-thiazole-4-carboxamide] | 177 | 25400
10 | O=C(Nc1cc(-c2ccccc2)[nH]n1)c1csc(Nc2ccc(Cl)cc2)n1 [Example 1, 2-[(4-Chlorophenyl)amino]-N-(5-phenyl-1H-pyrazol-3-yl)-1,3-thiazole-4-carboxamide] | 54.8 | ≥ 30000
11 | CC(C)(C)c1cc(NC(=O)c2csc(Nc3ccc(Cl)c(Cl)c3)n2)no1 [Example 21, N-(5-tert-Butyl-1,2-oxazol-3-yl)-2-[(3,4-dichlorophenyl)amino]-1,3-thiazole-4-carboxamide] | 1390 | 26700
12 | CC(C)(C)c1cc(NC(=O)c2csc(Nc3ccc(F)cc3)n2)no1 [Example 7, N-(5-tert-Butyl-1,2-oxazol-3-yl)-2-[(4-fluorophenyl)amino]-1,3-thiazole-4-carboxamide] | 149 | 17600

Continued, values first:

Row | IC50 [1] [nM] | IC50 [2] [nM] | SMILES
13 | 941 | 23400 | CCN(CC)CCOc1cc(NC(=O)c2csc(Nc3ccccc3)n2)ccc1-c1ccc(C)cc1 [Example 22, N-{2-[2-(Diethylamino)ethoxy]-4′-methylbiphenyl-4-yl}-2-(phenylamino)-1,3-thiazole-4-carboxamide]
14 | 303 | 18600 | O=C(Nc1cc(C2CC2)n[nH]1)c1csc(Nc2ccccc2)n1 [Example 14, N-(3-Cyclopropyl-1H-pyrazol-5-yl)-2-(phenylamino)-1,3-thiazole-4-carboxamide]
15 | 775 | ≥ 30000 | O=C(Nc1ccon1)c1csc(Nc2ccc(Cl)cc2)n1 [Example 19, 2-[(4-Chlorophenyl)amino]-N-(1,2-oxazol-3-yl)-1,3-thiazole-4-carboxamide]
16 | 113 | ≥ 30000 | O=C(Nc1cc(C2CC2)n[nH]1)c1csc(Nc2ccc(Cl)cc2)n1 [Example 5, 2-[(4-Chlorophenyl)amino]-N-(3-cyclopropyl-1H-pyrazol-5-yl)-1,3-thiazole-4-carboxamide]
17 | 111 | ≥ 30000 | O=C(Nc1nc2ccccc2s1)c1csc(Nc2ccc(Cl)cc2)n1 [Example 8, N-(1,3-Benzothiazol-2-yl)-2-[(4-chlorophenyl)amino]-1,3-thiazole-4-carboxamide]
18 | 344 | 26100 | CC(C)(C)c1cc(NC(=O)c2csc(Nc3ccc([N+](=O)[O-])cc3)n2)no1 [Example 13, N-(5-tert-Butyl-1,2-oxazol-3-yl)-2-[(4-nitrophenyl)amino]-1,3-thiazole-4-carboxamide]
19 | 7610 | – | O=C(c1csc(Nc2ccc(Cl)cc2)n1)N1CCC(N2CCc3ccccc3C2)CC1 [Example 27, {2-[(4-Chlorophenyl)amino]-1,3-thiazol-4-yl}{4-[3,4-dihydroisoquinolin-2(1H)-yl]piperidin-1-yl}methanone]
20 | 971 | ≥ 30000 | Cc1cc(NC(=O)c2csc(Nc3ccc(Cl)cc3)n2)no1 [Example 20, 2-[(4-Chlorophenyl)amino]-N-(5-methyl-1,2-oxazol-3-yl)-1,3-thiazole-4-carboxamide]
21 | 2540 | – | CC(C)(C)c1cc(NC(=O)c2csc(Nc3ccc(C#N)cc3)n2)no1 [Example 24, N-(5-tert-Butyl-1,2-oxazol-3-yl)-2-[(4-cyanophenyl)amino]-1,3-thiazole-4-carboxamide]
